Test results taken from patent publication US20260250312A1, “ANTIBACTERIAL COMPOUNDS ELIMINATING DORMANT BACTERIAL CELLS” (UNIVERSITÉ D'AIX-MARSEILLE, priority 2022, published 2026).
≈ marks a conversion by molar mass, not a printed value. Where “and” joins values, the source holds several entries; their conditions need not be identical. Identical values can stand only once. Like-named read-outs stand apart in the source and are kept apart here.

Assays:
[1] = test system: Staphylococcus aureus (ATCC25923); assay: Microdilution MIC assay (CLSI-based), S. aureus; format: cell-based; settings: 20 hours incubation at 35-37° C., MHB; for MIC: read-out: Minimum inhibitory concentration S. aureus ATCC25923
In short: (§1)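 Broth microdilution per modified CLSI guidelines in Mueller Hinton broth, 200 μL, inoculum ca. 5×10^5 CFU/mL; compounds tested as salts, twofold dilutions from 0.2 mg/mL, in triplicate. MIC determined from OD at 620 nm after incubation.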

CHO-K1 cells = assay: WST1 cytotoxicity test; format: cell-based, Chinese hamster; settings: WST1, 24 hours at 37° C.; for IC50: read-out: IC50 CHO
In short: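 CHO-K1 cells pre-cultured 24 h, then exposed 24 h at 37 °C to increasing compound concentrations. Viability read as WST-1 formazan absorbance at 450 nm after 20 min; dose-response fitted by nonlinear regression.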

[2] = test system: Escherichia coli (ATCC28922); assay: Microdilution MIC assay (CLSI-based), E. coli; format: cell-based; settings: 20 hours incubation at 35-37° C., MHB; for MIC: read-out: Minimum inhibitory concentration E. coli ATCC28922
In short: as §1

[3] = test system: Pseudomonas aeruginosa (ATCC27853); assay: Microdilution MIC assay (CLSI-based), P. aeruginosa; format: cell-based; settings: 20 hours incubation at 35-37° C., MHB; for MIC: read-out: Minimum inhibitory concentration P. aeruginosa ATCC27853
In short: as §1

[4] = test system: Enterococcus faecalis (ATCC29212); assay: Microdilution MIC assay (CLSI-based), E. faecalis; format: cell-based; settings: 20 hours incubation at 35-37° C., MHB; for MIC: read-out: Minimum inhibitory concentration E. faecalis ATCC29212
In short: as §1

[5] = Staphylococcus aureus, ATCC25923, 20 h
[6] = Cricetulus griseus, CHO-K1, 24 h
[7] = Escherichia coli, ATCC28922, 20 h
[8] = Pseudomonas aeruginosa, ATCC27853, 20 h
[9] = Enterococcus faecalis, ATCC29212, 20 h

For COC(=O)[C@H](NC(=O)CC[C@@H](C)[C@H]1CCC2C3CC[C@@H]4C[C@@H](NCCCN5CCN(CCCN)CC5)CC[C@]4(C)C3C[C@H](O)[C@@]21C)C(C)C (stereo partly drawn) [Compound S053, methyl ((4R)-4-((3S,5R,10S,12S,13R,17R)-3-((3-(4-(3-aminopropyl)piperazin-1-yl)propyl)amino)-12-hydroxy-10,13-dimethylhexadecahydro-1H-cyclopenta[a]phenanthren-17-yl)pentanoyl)-D-valinate], the MIC [1, 5] was 12.5 µM and 8 µg/mL, the IC50 (CHO-K1 cells; [6]) was > 100 µM and > 68 µg/mL and the MIC [2, 7] was 100 µM and 64 µg/mL. The MIC [3, 8] was > 200 µM and > 128 µg/mL and the MIC [4, 9] was 200 µM and 128 µg/mL.

COC(=O)CNC(=O)CC[C@@H](C)[C@H]1CCC2C3C(CC[C@@]21C)[C@@]1(C)CC[C@H](NCCCN(CCCN)CCCN)C[C@H]1C[C@H]3O (stereo partly drawn) [Compound S005, methyl ((4R)-4-((3S,5S,7R,10S,13R,17R)-3-((3-(bis(3-aminopropyl)amino)propyl)amino)-7-hydroxy-10,13-dimethylhexadecahydro-1H-cyclopenta[a]phenanthren-17-yl)pentanoyl)glycinate] was tested, and the MIC [1, 5] was 12.5 µM and 8 µg/mL, the IC50 (CHO-K1 cells; [6]) was > 100 µM and > 64 µg/mL and the MIC [2, 7] was > 200 µM and > 126 µg/mL. The MIC [3, 8] was > 200 µM and > 126 µg/mL and the MIC [4, 9] was 200 µM and 128 µg/mL.

For COC(=O)[C@H](Cc1ccccc1)NC(=O)CC[C@@H](C)[C@H]1CCC2C3C(CC[C@@]21C)[C@@]1(C)CC[C@H](NCCCN(C)CCCN)C[C@H]1C[C@H]3O (stereo partly drawn) [Compound S031, methyl ((4R)-4-((3S,5S,7R,10S,13R,17R)-3-((3-((3-aminopropyl)(methyl)amino)propyl)amino)-7-hydroxy-10,13-dimethylhexadecahydro-1H-cyclopenta[a]phenanthren-17-yl)pentanoyl)-L-phenylalaninate], the MIC [1, 5] was 6.25 µM and 4 µg/mL, the IC50 (CHO-K1 cells; [6]) was 84.5 µM and 57.6 µg/mL and the MIC [2, 7] was 12.5 µM and 8 µg/mL. For the same molecule, the MIC [3, 8] was 25 µM and 16 µg/mL and the MIC [4, 9] was 25 µM and 16 µg/mL.

In the case of COC(=O)[C@H](Cc1ccccc1)NC(=O)CC[C@@H](C)[C@H]1CCC2C3C(CC[C@@]21C)[C@@]1(C)CC[C@H](NCCCCN)C[C@H]1C[C@H]3O (stereo partly drawn) [Compound S030, methyl ((4R)-4-((3S,5S,7R,10S,13R,17R)-3-((4-aminobutyl)amino)-7-hydroxy-10,13-dimethylhexadecahydro-1H-cyclopenta[a]phenanthren-17-yl)pentanoyl)-L-phenylalaninate], the MIC [1, 5] is reported as 100 µM and 64 µg/mL, the IC50 (CHO-K1 cells; [6]) is reported as > 500 µM and > 311 µg/mL and the MIC [2, 7] is reported as 50 µM and 32 µg/mL. For the same molecule, the MIC [3, 8] was > 200 µM and > 124 µg/mL and the MIC [4, 9] was 200 µM and 124 µg/mL.

In the case of COC(=O)[C@H](NC(=O)CC[C@@H](C)[C@H]1CCC2C3C(C[C@H](O)[C@@]21C)[C@@]1(C)CC[C@H](NCCCN2CCN(CCCN)CC2)C[C@H]1C[C@H]3O)C(C)C (stereo partly drawn) [Compound S059, methyl ((4R)-4-((3S,5S,7R,10S,12S,13R,17R)-3-((3-(4-(3-aminopropyl)piperazin-1-yl)propyl)amino)-7,12-dihydroxy-10,13-dimethylhexadecahydro-1H-cyclopenta[a]phenanthren-17-yl)pentanoyl)-D-valinate], the MIC [1, 5] is reported as 50 µM and 32 µg/mL, the IC50 (CHO-K1 cells; [6]) is reported as 56.1 µM and 39.5 µg/mL and the MIC [2, 7] is reported as 200 µM and 128 µg/mL. The MIC [3, 8] was > 200 µM and > 128 µg/mL and the MIC [4, 9] was > 200 µM and > 128 µg/mL.

In the case of COC(=O)[C@@H](NC(=O)CC[C@@H](C)[C@H]1CCC2C3C(CC[C@@]21C)[C@@]1(C)CC[C@H](NCCCN(C)CCCN)C[C@H]1C[C@H]3O)C(C)C (stereo partly drawn) [Compound S026, methyl ((4R)-4-((3S,5S,7R,10S,13R,17R)-3-((3-((3-aminopropyl)(methyl)amino)propyl)amino)-7-hydroxy-10,13-dimethylhexadecahydro-1H-cyclopenta[a]phenanthren-17-yl)pentanoyl)-L-valinate], the MIC [1, 5] is reported as 25 µM and 16 µg/mL, the IC50 (CHO-K1 cells; [6]) is reported as 11.4 µM and 7.2 µg/mL and the MIC [2, 7] is reported as 25 µM and 16 µg/mL. For the same molecule, the MIC [3, 8] was 200 µM and 126 µg/mL and the MIC [4, 9] was 50 µM and 32 µg/mL.

With COC(=O)[C@H](Cc1ccccc1)NC(=O)CC[C@@H](C)[C@H]1CCC2C3C(CC[C@@]21C)[C@@]1(C)CC[C@H](NCCCNCCNCCCN)C[C@H]1C[C@H]3O (stereo partly drawn) [Compound S029, methyl ((4R)-4-((3S,5S,7R,10S,13R,17R)-3-((3-((2-((3-aminopropyl)amino)ethyl)amino)propyl)amino)-7-hydroxy-10,13-dimethylhexadecahydro-1H-cyclopenta[a]phenanthren-17-yl)pentanoyl)-L-phenylalaninate] the MIC [1, 5] was 12.5 µM and 8 µg/mL, the IC50 (CHO-K1 cells; [6]) was 47.8 µM and 33.9 µg/mL and the MIC [2, 7] was 50 µM and 32 µg/mL. The MIC [3, 8] was 50 µM and 32 µg/mL and the MIC [4, 9] was 12.5 µM and 8 µg/mL.

With COC(=O)[C@H](NC(=O)CC[C@@H](C)[C@H]1CCC2C3C(CC[C@@]21C)[C@@]1(C)CC[C@H](NCCCCCCN)C[C@H]1C[C@H]3O)C(C)C (stereo partly drawn) [Compound S023, methyl ((4R)-4-((3S,5S,7R,10S,13R,17R)-3-((6-aminohexyl)amino)-7-hydroxy-10,13-dimethylhexadecahydro-1H-cyclopenta[a]phenanthren-17-yl)pentanoyl)-D-valinate] the MIC [1, 5] was 50 µM and 32 µg/mL, the IC50 (CHO-K1 cells; [6]) was 48.5 µM and 29.3 µg/mL and the MIC [2, 7] was 100 µM and 64 µg/mL. The MIC [3, 8] was > 200 µM and > 120 µg/mL and the MIC [4, 9] was 100 µM and 64 µg/mL.

With COC(=O)[C@H](Cc1ccc(O)cc1)NC(=O)CC[C@@H](C)[C@H]1CCC2C3C(CC[C@@]21C)[C@@]1(C)CC[C@H](NCCCNCCCN)C[C@H]1C[C@H]3O (stereo partly drawn) [Compound S040, methyl ((4R)-4-((3S,5S,7R,10S,13R,17R)-3-((3-((3-aminopropyl)amino)propyl)amino)-7-hydroxy-10,13-dimethylhexadecahydro-1H-cyclopenta[a]phenanthren-17-yl)pentanoyl)-L-tyrosinate] the MIC [1, 5] was 25 µM and 16 µg/mL, the IC50 (CHO-K1 cells; [6]) was 155 µM and 106 µg/mL and the MIC [2, 7] was 50 µM and 32 µg/mL. For the same molecule, the MIC [3, 8] was 50 µM and 32 µg/mL and the MIC [4, 9] was 25 µM and 16 µg/mL.

For COC(=O)[C@H](NC(=O)CC[C@@H](C)[C@H]1CCC2C3C(CC[C@@]21C)[C@@]1(C)CC[C@H](NCCCNCCCN)C[C@H]1C[C@H]3O)C(C)C (stereo partly drawn) [Compound S007, methyl ((4R)-4-((3S,5S,7R,10S,13R,17R)-3-((3-((3-aminopropyl)amino)propyl)amino)-7-hydroxy-10,13-dimethylhexadecahydro-1H-cyclopenta[a]phenanthren-17-yl)pentanoyl)-D-valinate], the “Minimum inhibitory concentration S. aureus ATCC25923” value [1] was 8 µg/mL (≈ 12.9 µM), the MIC [1] was 12.5 µM (≈ 7.74 µg/mL) and the “IC50 CHO” value (CHO-K1 cells) was 70.20 µg/mL (≈ 113 µM). The IC50 (CHO-K1 cells) was 113 µM, the “Minimum inhibitory concentration E. coli ATCC28922” value [2] was 4 µg/mL (≈ 6.46 µM) and the MIC [2] was 6.25 µM (≈ 3.87 µg/mL). For the same molecule, the “Minimum inhibitory concentration P. aeruginosa ATCC27853” value [3] was 16 µg/mL (≈ 25.9 µM), the MIC [3] was 25 µM (≈ 15.5 µg/mL) and the “Minimum inhibitory concentration E. faecalis ATCC29212” value [4] was 8 µg/mL (≈ 12.9 µM). For the same molecule, the MIC [4] was 12.5 µM (≈ 7.74 µg/mL).

With COC(=O)[C@H](NC(=O)CC[C@@H](C)[C@H]1CCC2C3C(CC[C@@]21C)[C@@]1(C)CC[C@H](NCCNCCN)C[C@H]1C[C@H]3O)C(C)C (stereo partly drawn) [Compound S020, methyl ((4R)-4-((3S,5S,7R,10S,13R,17R)-3-((2-((2-aminoethyl)amino)ethyl)amino)-7-hydroxy-10,13-dimethylhexadecahydro-1H-cyclopenta[a]phenanthren-17-yl)pentanoyl)-D-valinate] the MIC [1, 5] was 100 µM and 64 µg/mL, the IC50 (CHO-K1 cells; [6]) was 17.2 µM and 10.2 µg/mL and the MIC [2, 7] was 100 µM and 64 µg/mL. For the same molecule, the MIC [3, 8] was > 200 µM and > 128 µg/mL and the MIC [4, 9] was > 200 µM and > 128 µg/mL.
